Experiments:
Conditions in all cases: 72 h
Calu-3 [1] = test: cell viability relative to DMSO; higher = less toxic
Caco-2 [2] = test: as above
U2OS [3] = test: as above
HepG2 [4] = test: as above
Calu-3 [5] = test: drug sensitivity score (DSS) for viability; higher = more toxic; extreme values may be limits of the assay
Caco-2 [6] = test: as above
U2OS [7] = test: as above
HepG2 [8] = test: as above
Calu-3 [9] = test: relative viability EC50 (midpoint between 100% and the lowest measured viability); higher = less toxic
Caco-2 [10] = test: as above
U2OS [11] = test: as above
HepG2 [12] = test: as above
Vero E6 [13] = test: cell viability relative to DMSO; higher = less toxic
Vero E6 [14] = test: drug sensitivity score (DSS) for viability; higher = more toxic; extreme values may be limits of the assay
Vero E6 [15] = test: relative viability EC50 (midpoint between 100% and the lowest measured viability); higher = less toxic

| SMILES | cell viability (Calu-3 [1]; 1 nM) | cell viability (Calu-3 [1]; 10 nM) | cell viability (Calu-3 [1]; 100 nM) | cell viability (Calu-3 [1]; 1000 nM) | cell viability (Calu-3 [1]; 10000 nM) | cell viability (Caco-2 [2]; 1 nM) | cell viability (Caco-2 [2]; 10 nM) | cell viability (Caco-2 [2]; 100 nM) | cell viability (Caco-2 [2]; 1000 nM) | cell viability (Caco-2 [2]; 10000 nM) | cell viability (U2OS [3]; 1 nM) | cell viability (U2OS [3]; 10 nM) | cell viability (U2OS [3]; 100 nM) | cell viability (U2OS [3]; 1000 nM) | cell viability (U2OS [3]; 10000 nM) | cell viability (HepG2 [4]; 1 nM) | cell viability (HepG2 [4]; 10 nM) | cell viability (HepG2 [4]; 100 nM) | cell viability (HepG2 [4]; 1000 nM) | cell viability (HepG2 [4]; 10000 nM) | drug sensitivity score (Calu-3 [5]) | drug sensitivity score (Caco-2 [6]) | drug sensitivity score (U2OS [7]) | drug sensitivity score (HepG2 [8]) | relative viability EC50 (Calu-3 [9]) | relative viability EC50 (Caco-2 [10]) | relative viability EC50 (U2OS [11]) | relative viability EC50 (HepG2 [12]) | cell viability (Vero E6 [13]; 1 nM) | cell viability (Vero E6 [13]; 10 nM) | cell viability (Vero E6 [13]; 100 nM) | cell viability (Vero E6 [13]; 1000 nM) | cell viability (Vero E6 [13]; 10000 nM) | drug sensitivity score (Vero E6 [14]) | relative viability EC50 (Vero E6 [15]) |
| --- | --- | --- | --- | --- | --- | --- | --- | --- | --- | --- | --- | --- | --- | --- | --- | --- | --- | --- | --- | --- | --- | --- | --- | --- | --- | --- | --- | --- | --- | --- | --- | --- | --- | --- | --- |
| COc1ccc2c(c1)c(CC(=O)O)c(C)n2C(=O)c1ccc(Cl)cc1 [indomethacin] | 99.2% | 96.4% | 90.7% | 84.3% | 91.8% | 95.6% | 98.6% | 101% | 98.4% | 94.6% | 98.9% | 102% | 97.8% | 101% | 99.7% | 105% | 100% | 108% | 94.7% | 95% | 1 | 0 | 0 | 0 | > 10 µM | > 10 µM | > 10 µM | > 10 µM | – | – | – | – | – | – | – |
| C[C@]12CC/C(=N\OCCN)C[C@@H]1C(=O)C[C@@H]1[C@@H]2CC[C@]2(C)C(=O)CC[C@@H]12 [istaroxime] | 94.5% | 96.5% | 93% | 91.1% | 95.5% | 97.6% | 93.1% | 95.7% | 88.4% | 71.7% | 98.8% | 96.9% | 101% | 95.7% | 51.4% | 110% | 102% | 88.6% | 99.7% | 87.2% | 0 | 2.1 | 3.2 | 0 | > 10 µM | – | – | > 10 µM | 106% | 105% | 98.3% | 97.9% | 61.1% | 2.2 | – |
| CC(=O)SCCC(=O)N1[C@H](C)CCC[C@@H]1C(=O)O [methiopril] | 99.2% | 99.6% | 96.8% | 97.5% | 88.1% | 96.1% | 103% | 93.8% | 100% | 89.6% | – | – | – | – | – | 109% | 99.3% | 98.6% | 96% | 97.2% | 0.1 | 0 | – | 0 | > 10 µM | > 10 µM | – | > 10 µM | – | – | – | – | – | – | – |
| COc1ccc(OC)c(C(O)C(C)N)c1 (configuration not stated) [methoxamine] | 93.7% | 99.6% | 103% | 100% | 109% | – | – | – | – | – | – | – | – | – | – | – | – | – | – | – | 0 | – | – | – | > 10 µM | – | – | – | 109% | 107% | 99.4% | 102% | 102% | 0 | > 10 µM |
| O=C(O)c1cc(/N=N/c2ccc(O)c(C(=O)O)c2)ccc1O [olsalazine] | 107% | 94.3% | 94.4% | 100% | 105% | 96.8% | 107% | 104% | 106% | 91.9% | 99% | 102% | 103% | 107% | 103% | – | – | – | – | – | 0 | 0 | 0 | – | > 10 µM | > 10 µM | > 10 µM | – | – | – | – | – | – | – | – |
| [I-].[K+] [potassium-iodide] | 99.9% | 111% | 96.2% | 102% | 95.1% | – | – | – | – | – | – | – | – | – | – | – | – | – | – | – | 0 | – | – | – | > 10 µM | – | – | – | 102% | 99.7% | 103% | 101% | 106% | 0 | > 10 µM |
| COc1cc2c(cc1OC)[C@@H]1Cc3ccc(OC)c(OC)c3CN1CC2 [rotundine] | 103% | 108% | 99.8% | 101% | 89.2% | 102% | 98.1% | 94.8% | 109% | 91% | – | – | – | – | – | – | – | – | – | – | 0 | 0 | – | – | > 10 µM | > 10 µM | – | – | – | – | – | – | – | – | – |
| CC1(C)CCC(C)(C)c2cc(NC(=O)c3ccc(C(=O)O)cc3)ccc21 [tamibarotene] | 95.4% | 83.6% | 73.5% | 67.8% | 70.1% | 98% | 100% | 95.4% | 98.8% | 83.8% | 99% | 96.1% | 90.6% | 91.4% | 87.7% | 110% | 98.7% | 114% | 109% | 108% | 10.1 | 0.4 | 0.3 | 0 | – | > 10 µM | > 10 µM | > 10 µM | 101% | 101% | 100% | 91.6% | 96.5% | 0 | > 10 µM |
| COc1cc([C@@H]2c3cc4c(cc3[C@@H](O[C@@H]3O[C@@H]5CO[C@@H](c6cccs6)O[C@H]5[C@H](O)[C@H]3O)[C@H]3COC(=O)[C@H]23)OCO4)cc(OC)c1O [teniposide] | 91.1% | 92.6% | 75.8% | 47.2% | 40.6% | 108% | 95.7% | 100% | 71% | 29% | 99.3% | 94.4% | 92.7% | 66.5% | 4.2% | 89.6% | 86.1% | 47.3% | 27.8% | 9.9% | 12.6 | 7.8 | 9.4 | 21.5 | 0.129 µM | 1.16 µM | 1.37 µM | 0.0761 µM | 106% | 92.8% | 100% | 75% | 64% | 4.6 | – |
| C/C=C/C[C@@H](C)C(=O)[C@H]1C(=O)N[C@@H](C(C)C)C(=O)N(C)CC(=O)N(C)[C@@H](CC(C)C)C(=O)N[C@@H](C(C)C)C(=O)N(C)[C@@H](CC(C)C)C(=O)N[C@@H](C)C(=O)N[C@H](C)C(=O)N(C)[C@@H](CC(C)C)C(=O)N(C)[C@@H](CC(C)C)C(=O)N(C)[C@@H](C(C)C)C(=O)N1C [valspodar] | 109% | 99.8% | 95.4% | 105% | 82.2% | 119% | 111% | 106% | 73.5% | 50.7% | 99.9% | 96.4% | 102% | 99.7% | 87.4% | – | – | – | – | – | 0.3 | 5.9 | 0.1 | – | > 10 µM | – | > 10 µM | – | – | – | – | – | – | – | – |

Source: the supplement of paper PMC13380429
